Where no end group is shown, it is not given here.
test system: not listed separately; assay: Circular dichroic measurements; type: physicochemical; conditions: 50 mM K-phosphate, pH7

Substance | % structure calculated from CD spectra, alpha-helix [%] | % structure calculated from CD spectra, beta-sheet [%]
GIGKFLHAAKKFAKAFVAEIMNS-NH2 [analogue B] | 2 | 44
GIGKFLHSAGKFGKAFVGEIMKS [Magainin 1, reference compound] | 0 | 44
Ac-GIGKFLHAAKKFAKAFVAEIMNS-NH2 [analogue C] | 0 | 48
GIGKFLHSAKKFAKAFVAEIMNS-NH2 [analogue F] | 1 | 46

same assay, conditions: 40% CF3CH2OH (trifluoroethanol)

Substance | % structure calculated from CD spectra, alpha-helix [%] | % structure calculated from CD spectra, beta-sheet [%]
GIGKFLHAAKKFAKAFVAEIMNS-NH2 [analogue B] | 61 | 9
GIGKFLHSAGKFGKAFVGEIMKS [Magainin 1, reference compound] | 24 | 37
Ac-GIGKFLHAAKKFAKAFVAEIMNS-NH2 [analogue C] | 61 | 14
GIGKFLHSAKKFAKAFVAEIMNS-NH2 [analogue F] | 63 | 6

test system: Klebsiella pneumoniae (ATCC 13883); assay: Antimicrobial assay, macrodilution broth; type: cell-based; conditions: Klebsiella pneumoniae (13883); 50% inhibition of growth
Description: (§1) The antimicrobial activities of magainin analogues were assayed by macrodilution broth procedure of Jones et al (Jones, R. N., Barry, A. L., Gaven, T. L. and Washington, J. A. in "Manual of Clinical Microbiology", Lennette, D. H. Balows, A., Hausler, W. J. and Shadomy, H. J., eds; fourth edition, American Society for Microbiology, Washington, D.C., 1985) with modifications. Different concentrations of peptides were added to 2 ml of trypticase soy broth (BBL) containing the inocula of the test organisms adjusted to 10^5 and 10^6 CFU/ml. Microbial growth was determined by the increase in OD600, after incubation of the tubes at 35° C. for 6-9 h depending on the growth rate. […] The 50% minimal inhibitory concentration was determined from the plots of growth vs concentration of peptide.

Substance | 50% Minimal inhibitory concentration [µg/mL]
GIGKFLHAAKKFAKAFVAEIMNS-NH2 [analogue B] | 5
GIGKFLHSAGKFGKAFVGEIMKS [Magainin 1, reference compound] | 100
Ac-GIGKFLHAAKKFAKAFVAEIMNS-NH2 [analogue C] | 60
GIGKFLHSAKKFAKAFVAEIMNS-NH2 [analogue F] | 5

same assay, conditions: Klebsiella pneumoniae (13883); complete inhibition of growth

Substance | 100% Minimal inhibitory concentration [µg/mL]
GIGKFLHAAKKFAKAFVAEIMNS-NH2 [analogue B] | 10
GIGKFLHSAGKFGKAFVGEIMKS [Magainin 1, reference compound] | 250
Ac-GIGKFLHAAKKFAKAFVAEIMNS-NH2 [analogue C] | 100
GIGKFLHSAKKFAKAFVAEIMNS-NH2 [analogue F] | 25

test system: Staphylococcus aureus (ATCC 29213) beta-lactamase(+); assay: Antimicrobial assay, macrodilution broth; type: cell-based; conditions: Staphylococcus aureus (29213) beta-lactamase(+); 50% inhibition of growth
Description: as §1

Substance | 50% Minimal inhibitory concentration [µg/mL]
GIGKFLHAAKKFAKAFVAEIMNS-NH2 [analogue B] | 5
GIGKFLHSAGKFGKAFVGEIMKS [Magainin 1, reference compound] | 500
Ac-GIGKFLHAAKKFAKAFVAEIMNS-NH2 [analogue C] | 7.5
GIGKFLHSAKKFAKAFVAEIMNS-NH2 [analogue F] | 5

same assay, conditions: Staphylococcus aureus (29213) beta-lactamase(+); complete inhibition of growth

Substance | 100% Minimal inhibitory concentration [µg/mL]
GIGKFLHAAKKFAKAFVAEIMNS-NH2 [analogue B] | 10
GIGKFLHSAGKFGKAFVGEIMKS [Magainin 1, reference compound] | > 500
Ac-GIGKFLHAAKKFAKAFVAEIMNS-NH2 [analogue C] | 25
GIGKFLHSAKKFAKAFVAEIMNS-NH2 [analogue F] | 10

test system: Staphylococcus aureus (ATCC 25923) beta-lactamase(-); assay: Antimicrobial assay, macrodilution broth; type: cell-based; conditions: Staphylococcus aureus (25923) beta-lactamase(-); 50% inhibition of growth
Description: as §1

Substance | 50% Minimal inhibitory concentration [µg/mL]
GIGKFLHAAKKFAKAFVAEIMNS-NH2 [analogue B] | 5
GIGKFLHSAGKFGKAFVGEIMKS [Magainin 1, reference compound] | 360
Ac-GIGKFLHAAKKFAKAFVAEIMNS-NH2 [analogue C] | 10
GIGKFLHSAKKFAKAFVAEIMNS-NH2 [analogue F] | 10

same assay, conditions: Staphylococcus aureus (25923) beta-lactamase(-); complete inhibition of growth

Substance | 100% Minimal inhibitory concentration [µg/mL]
GIGKFLHAAKKFAKAFVAEIMNS-NH2 [analogue B] | 10
GIGKFLHSAGKFGKAFVGEIMKS [Magainin 1, reference compound] | > 500
Ac-GIGKFLHAAKKFAKAFVAEIMNS-NH2 [analogue C] | 25
GIGKFLHSAKKFAKAFVAEIMNS-NH2 [analogue F] | 25

test system: Streptococcus faecalis (ATCC 29212); assay: Antimicrobial assay, macrodilution broth; type: cell-based; conditions: Streptococcus faecalis (29212); 50% inhibition of growth
Description: as §1

Substance | 50% Minimal inhibitory concentration [µg/mL]
GIGKFLHAAKKFAKAFVAEIMNS-NH2 [analogue B] | 5
GIGKFLHSAGKFGKAFVGEIMKS [Magainin 1, reference compound] | 360
Ac-GIGKFLHAAKKFAKAFVAEIMNS-NH2 [analogue C] | 5
GIGKFLHSAKKFAKAFVAEIMNS-NH2 [analogue F] | 10

same assay, conditions: Streptococcus faecalis (29212); complete inhibition of growth

Substance | 100% Minimal inhibitory concentration [µg/mL]
GIGKFLHAAKKFAKAFVAEIMNS-NH2 [analogue B] | 10
GIGKFLHSAGKFGKAFVGEIMKS [Magainin 1, reference compound] | > 500
Ac-GIGKFLHAAKKFAKAFVAEIMNS-NH2 [analogue C] | 25
GIGKFLHSAKKFAKAFVAEIMNS-NH2 [analogue F] | 25

test system: Pseudomonas aeruginosa (ATCC 27853); assay: Antimicrobial assay, macrodilution broth; type: cell-based; conditions: Pseudomonas aeruginosa (27853); 50% inhibition of growth
Description: as §1

Substance | 50% Minimal inhibitory concentration [µg/mL]
GIGKFLHAAKKFAKAFVAEIMNS-NH2 [analogue B] | 15
GIGKFLHSAGKFGKAFVGEIMKS [Magainin 1, reference compound] | 430
Ac-GIGKFLHAAKKFAKAFVAEIMNS-NH2 [analogue C] | > 100
GIGKFLHSAKKFAKAFVAEIMNS-NH2 [analogue F] | 25

same assay, conditions: Pseudomonas aeruginosa (27853); complete inhibition of growth

Substance | 100% Minimal inhibitory concentration [µg/mL]
GIGKFLHAAKKFAKAFVAEIMNS-NH2 [analogue B] | 25
GIGKFLHSAGKFGKAFVGEIMKS [Magainin 1, reference compound] | > 500
Ac-GIGKFLHAAKKFAKAFVAEIMNS-NH2 [analogue C] | > 100
GIGKFLHSAKKFAKAFVAEIMNS-NH2 [analogue F] | 50

test system: Escherichia coli (ATCC 25922); assay: Antimicrobial assay, macrodilution broth; type: cell-based; conditions: Escherichia coli (25922); 50% inhibition of growth
Description: as §1

Substance | 50% Minimal inhibitory concentration [µg/mL]
GIGKFLHAAKKFAKAFVAEIMNS-NH2 [analogue B] | 1.2
GIGKFLHSAGKFGKAFVGEIMKS [Magainin 1, reference compound] | 100
Ac-GIGKFLHAAKKFAKAFVAEIMNS-NH2 [analogue C] | 10
GIGKFLHSAKKFAKAFVAEIMNS-NH2 [analogue F] | 1.2

same assay, conditions: Escherichia coli (25922); complete inhibition of growth

Substance | 100% Minimal inhibitory concentration [µg/mL]
GIGKFLHAAKKFAKAFVAEIMNS-NH2 [analogue B] | 2.5
GIGKFLHSAGKFGKAFVGEIMKS [Magainin 1, reference compound] | 250
Ac-GIGKFLHAAKKFAKAFVAEIMNS-NH2 [analogue C] | 25
GIGKFLHSAKKFAKAFVAEIMNS-NH2 [analogue F] | 5

test system: Streptococcus agalactiae (ATCC 12386); assay: Antimicrobial assay, macrodilution broth; type: cell-based; conditions: Streptococcus agalactiae (12386); 50% inhibition of growth
Description: as §1

Substance | 50% Minimal inhibitory concentration [µg/mL]
GIGKFLHAAKKFAKAFVAEIMNS-NH2 [analogue B] | 0.25
GIGKFLHSAGKFGKAFVGEIMKS [Magainin 1, reference compound] | 60
Ac-GIGKFLHAAKKFAKAFVAEIMNS-NH2 [analogue C] | 0.5
GIGKFLHSAKKFAKAFVAEIMNS-NH2 [analogue F] | 0.25

same assay, conditions: Streptococcus agalactiae (12386); complete inhibition of growth

Substance | 100% Minimal inhibitory concentration [µg/mL]
GIGKFLHAAKKFAKAFVAEIMNS-NH2 [analogue B] | 1
GIGKFLHSAGKFGKAFVGEIMKS [Magainin 1, reference compound] | 75
Ac-GIGKFLHAAKKFAKAFVAEIMNS-NH2 [analogue C] | 1
GIGKFLHSAKKFAKAFVAEIMNS-NH2 [analogue F] | 1

test system: human erythrocyte; assay: Erythrocyte hemolysis assay; type: cell-based; conditions: not given
Description: To 75×12 mm borosilicate test tubes containing a predetermined amount of dried peptide in duplicate, 2.5 ml of diluted human erythrocyte suspension (10%, v/v) in isotonic phosphate-buffered saline was added. After gentle mixing and incubation for 10 min at 37° C., tubes were centrifuged at 3000×g for 10 min. The supernatant was separated from cells and debris, diluted if necessary, and OD350 measured. 100% hemolysis was obtained by using 0.1% Triton X-100.

Substance | hemolytic activity (in words, comparative)
GIGKFLHSAKKFAKAFVAEIMNS-NH2 [analogue F] | lower hemolytic activity

test system: Gram-positive and Gram-negative bacteria; assay: Antimicrobial assay, overall statements; type: cell-based; conditions: not given
Description: as §1

Substance | growth inhibition of both Gram-positive and Gram-negative bacteria (in words)
GIGKFLHAAKKFAKAFVAEIMNS-NH2 [analogue B] | active
Ac-GIGKFLHAAKKFAKAFVAEIMNS-NH2 [analogue C] | active
GIGKFLHSAKKFAKAFVAEIMNS-NH2 [analogue F] | active

same assay, conditions: effect of acetylation of the alpha-amino terminus, versus analogue B

Substance | growth inhibitory activity toward Gram-negative bacteria
Ac-GIGKFLHAAKKFAKAFVAEIMNS-NH2 [analogue C] | significantly reduced

same assay, conditions: effect of omission of replacement at Ser8

Substance | antimicrobial activity
GIGKFLHSAKKFAKAFVAEIMNS-NH2 [analogue F] | only slightly

From patent publication US5221732A, “Antimicrobial magainin modified peptides” (priority 1988, dated 1993)
